Columns and labels:
human CYP11B2 = biological target: T1, human CYP11B2 (Homo sapiens, UniProt P19099); test: G-402 cellular enzyme assay, human CYP11B2 (aldosterone release, HTRF); format: cell-based; details: G-402 cells, 1 μM Deoxycorticosterone
T1 construct: expressed in transfected cells
T1 sequence (P19099 25-503): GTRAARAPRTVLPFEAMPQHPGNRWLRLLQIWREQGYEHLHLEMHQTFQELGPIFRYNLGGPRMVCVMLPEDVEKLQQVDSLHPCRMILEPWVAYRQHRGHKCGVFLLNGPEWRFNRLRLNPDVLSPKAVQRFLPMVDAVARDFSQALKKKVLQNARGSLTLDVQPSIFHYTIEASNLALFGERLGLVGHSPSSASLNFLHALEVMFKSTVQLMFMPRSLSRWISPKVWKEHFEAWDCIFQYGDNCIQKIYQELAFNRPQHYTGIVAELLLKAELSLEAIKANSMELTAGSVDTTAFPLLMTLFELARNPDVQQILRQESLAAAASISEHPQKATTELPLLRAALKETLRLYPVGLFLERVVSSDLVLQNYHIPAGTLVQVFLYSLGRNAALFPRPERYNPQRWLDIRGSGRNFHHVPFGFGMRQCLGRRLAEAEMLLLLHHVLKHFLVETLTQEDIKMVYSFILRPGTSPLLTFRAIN
Source text: (§1) Herein we identified the use of the G-402 cell line as a host cell to ectopically express (transiently or stably) enzymes of the CYP11 family. Specifically we developed stable G-402 cells expressing ectopically human CYP11B1, human CYP11B2, human CYP11A1, cynmolgus CYP11B1 or cynomolgus CYP11B2 enzyme activity. Importantly the identified cell line G-402 expresses co-factors (adrenodoxin and adrenodoxin reductase) important for the activity of the CYP11 family and no relevant enzyme activity of the CYP11 family (in comparison to H295R cells) was detected in these cells. Therefore the G-402 cell line is uniquely suited as a host cell for the ectopic expression of enzymes from the CYP11 family.
(§2) G-402 cells can be obtained from ATCC(CRL-1440) and were originally derived from a renal leiomyoblastoma.
(§3) The expression plasmids contain the ORF for either human/cyno CYP11B1 or CYP11B2 under the control of a suitable promoter (CMV-promoter) and a suitable resistance marker (neomycin). Using standard techniques the expression plasmid is transfected into G-402 cells and these cells are then selected for expressing the given resistance markers. Individual cell-clones are then selected and assessed for displaying the desired enzymatic activity using 11-Deoxycorticosterone (Cyp11B2) or 11-Deoxycortisol (Cyp11B1) as a substrate.
(§4) G-402 cells expressing CYP11 constructs were established as described above and maintained in McCoy's 5a Medium Modified, ATCC Catalog No. 30-2007 containing 10% FCS and 400 μg/ml G418 (Geneticin) at 37° C. under an atmosphere of 5% CO2/95% air.
(§5) Cellular enzyme assays were performed in DMEM/F12 medium containing 2.5% charcoal treated FCS and appropriate concentration of substrate (0.3-10 uM 11-Deoxycorticosterone, 11-Deoxycortisol or Corticosterone). For assaying enzymatic activity, cells were plated onto 96 well plates and incubated for 16 h. An aliquot of the supernatant is then transferred and analyzed for the concentration of the expected product (Aldosterone for CYP11B2; Cortisol for CYP11B1). The concentrations of these steroids can be determined using HTRF assays from CisBio analyzing either Aldosterone or Cortisol.
(§6) Inhibition of the release of produced steroids can be used as a measure of the respective enzyme inhibition by test compounds added during the cellular enzyme assay. The dose dependent inhibition of enzymatic activity by a compound is calculated by means of plotting added inhibitor concentrations (x-axes) vs. measured steroid/product level (y-axes). The inhibition is then calculated by fitting the following 4-parameter sigmoidal function (Morgan-Mercer-Flodin (MMF) model) to the raw data points using the least squares method:
(§7) [formula] wherein, A is the maximum y value, B is the EC50 factor determined using XLFit, C is the minimum y value and D is the slope value.
(§8) EC50 values for compounds claimed herein were tested with the G402-based assay system described. Cyp11B2 enzyme activity was tested in presence of 1 μM Deoxycorticosterone and variable amounts of inhibitors; Cyp11B1 enzyme activity was tested in presence of 1 μM Deoxycortisol and variable amounts of inhibitors.

human CYP11B1 = biological target: T2, human CYP11B1 (Homo sapiens, UniProt P15538); test: G-402 cellular enzyme assay, human CYP11B1 (cortisol release, HTRF); format: cell-based; details: G-402 cells, 1 μM Deoxycortisol
T2 construct: expressed in transfected cells
T2 sequence (P15538 25-503): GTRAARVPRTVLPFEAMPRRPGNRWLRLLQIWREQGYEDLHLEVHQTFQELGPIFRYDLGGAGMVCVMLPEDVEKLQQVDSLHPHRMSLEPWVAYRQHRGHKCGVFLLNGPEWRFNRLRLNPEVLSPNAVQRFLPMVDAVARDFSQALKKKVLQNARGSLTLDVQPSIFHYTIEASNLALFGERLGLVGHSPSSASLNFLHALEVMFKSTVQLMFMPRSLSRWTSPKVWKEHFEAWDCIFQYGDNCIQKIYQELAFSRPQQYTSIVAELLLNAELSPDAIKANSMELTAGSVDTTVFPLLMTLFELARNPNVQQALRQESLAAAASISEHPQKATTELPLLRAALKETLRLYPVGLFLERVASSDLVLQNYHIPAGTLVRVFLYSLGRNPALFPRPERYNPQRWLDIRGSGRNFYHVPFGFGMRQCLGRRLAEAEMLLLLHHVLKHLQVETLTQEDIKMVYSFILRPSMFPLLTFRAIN
Source text: as §1, §2, §3, §4, §5, §6, §7, §8

EC50 (human CYP11B2) | EC50 (human CYP11B1) | SMILES
26.3 nM | 2570 nM | CCC1c2cc(Cl)ccc2C(=O)N1c1cncc2c1CCCC2NS(C)(=O)=O (mixture of isomers) [Example 346, N-[4-(5-Chloro-3-ethyl-1-oxo-1,3-dihydro-isoindol-2-yl)-5,6,7,8-tetrahydro-isoquinolin-8-yl]-methanesulfonamide]
1050 nM | 31000 nM | CCS(=O)(=O)NC1CCCc2c1cncc2N1Cc2cc(Cl)ccc2C1=O (racemic) [Example 315, Ethanesulfonic acid [4-(5-chloro-1-oxo-1,3-dihydro-isoindol-2-yl)-5,6,7,8-tetrahydro-isoquinolin-8-yl]-amide]
52.8 nM | 2660 nM | CCC(=O)NC1CCCc2c1cncc2N1C(=O)c2ccc(Cl)cc2C1(C)C (racemic) [Example 468, N-[4-(6-Chloro-1,1-dimethyl-3-oxo-1,3-dihydro-isoindol-2-yl)-5,6,7,8-tetrahydro-isoquinolin-8-yl]-propionamide]
389 nM | 15400 nM | CCC1c2ccc(Cl)cc2C(=O)N1c1cncc(F)c1 (single isomer, unassigned) [Example 307, (S or R)-6-Chloro-3-ethyl-2-(5-fluoro-pyridin-3-yl)-2,3-dihydro-isoindol-1-one]
380 nM | 26300 nM | CCC1c2ccc(Cl)cc2C(=O)N1c1cncc(F)c1 (single isomer, unassigned) [Example 308, (R or S)-6-Chloro-3-ethyl-2-(5-fluoro-pyridin-3-yl)-2,3-dihydro-isoindol-1-one]
16 nM | 2450 nM | CCC1c2cc(Cl)ccc2C(=O)N1c1cncc(F)c1 (single isomer, unassigned) [Example 309, (R or S)-5-Chloro-3-ethyl-2-(5-fluoro-pyridin-3-yl)-2,3-dihydro-isoindol-1-one]
16.5 nM | 3970 nM | CCC1c2cc(Cl)ccc2C(=O)N1c1cncc(F)c1 (single isomer, unassigned) [Example 310, (S or R)-5-Chloro-3-ethyl-2-(5-fluoro-pyridin-3-yl)-2,3-dihydro-isoindol-1-one]
48.2 nM | 4010 nM | CCC(=O)N[C@@H]1CCCc2c1cncc2N1C(=O)c2cc(Cl)ccc2[C@H]1CC (single isomer, unassigned) [Example 312, N-[(R or S)-4-((R or S)-5-Chloro-1-ethyl-3-oxo-1,3-dihydro-isoindol-2-yl)-5,6,7,8-tetrahydro-isoquinolin-8-yl]-propionamide]
118 nM | 3540 nM | CCC(=O)N[C@@H]1CCCc2c1cncc2N1C(=O)c2cc(Cl)ccc2[C@@H]1CC (single isomer, unassigned) [Example 313, N-[(R or S)-4-((S or R)-5-Chloro-1-ethyl-3-oxo-1,3-dihydro-isoindol-2-yl)-5,6,7,8-tetrahydro-isoquinolin-8-yl]-propionamide]
28.2 nM | 5230 nM | CCC(=O)NC1CCCc2c1cncc2N1Cc2cc(Cl)ccc2C1=O (single isomer, unassigned) [Example 314, N-[(R or S)-4-(5-Chloro-1-oxo-1,3-dihydro-isoindol-2-yl)-5,6,7,8-tetrahydro-isoquinolin-8-yl]-propionamide]
55.6 nM | 3990 nM | CC(=O)NC1CCCc2c1cncc2N1CCc2cc(Cl)ccc2C1=O (single isomer, unassigned) [Example 321, N-((S or R)-6-Chloro-1-oxo-3,4,5′,6′,7′,8′-hexahydro-1H-[2,4′]biisoquinolinyl-8′-yl)-acetamide]
5140 nM | 39600 nM | CC(=O)NC1CCCc2c1cncc2N1Cc2cc(Cl)ccc2C1=O (single isomer, unassigned) [Example 322, N-[(S or R)-4-(5-Chloro-1-oxo-1,3-dihydro-isoindol-2-yl)-5,6,7,8-tetrahydro-isoquinolin-8-yl]-acetamide]
2060 nM |  | COc1ccc2c(c1)CCN(c1cccnc1)C2=O [Example 94, 6-Methoxy-2-pyridin-3-yl-3,4 dihydro-2H-isoquinolin-1-one]
1540 nM |  | CC1(C)CN(c2cccnc2)C(=O)c2ccc(Cl)cc21 [Example 102, 6-Chloro-4,4-dimethyl-2-pyridin-3-yl-3,4-dihydro-2H-isoquinolin-1-one]
722 nM |  | CC1c2ccc(Cl)cc2C(=O)N1c1cccnc1 (centres unmarked) [Example 119, 6-Chloro-3-methyl-2-pyridin-3-yl-2,3-dihydro-isoindol-1-one]
1080 nM |  | CS(=O)(=O)Nc1cncc(N2CCc3cc(Cl)ccc3C2=O)c1 [Example 220, N-[5-(6-Chloro-1-oxo-3,4-dihydro-1H-isoquinolin-2-yl)-pyridin-3-yl]-methanesulfonamide]
2550 nM |  | CCC(=O)Nc1cncc(N2CCc3cc(Cl)ccc3C2=O)c1 [Example 225, N-[5-(6-Chloro-1-oxo-3,4-dihydro-1H-isoquinolin-2-yl)-pyridin-3-yl]-propionamide]
4210 nM |  | CC(C)(Nc1cncc(N2CCc3cc(Cl)ccc3C2=O)c1)C(=O)O [Example 227, 2-[5-(6-Chloro-1-oxo-3,4-dihydro-1H-isoquinolin-2-yl)-pyridin-3-ylamino]-2-methyl-propionic acid]
582 nM |  | O=C1c2ccc(Cl)cc2CCN1c1cncc(-c2ccc(Cl)c(Cl)c2)c1 [Example 241, 6-Chloro-2-[5-(3,4-dichloro-phenyl)-pyridin-3-yl]-3,4-dihydro-2H-isoquinolin-1-one]
 | 2650 nM | O=C(Nc1cncc(N2CCc3cc(Cl)ccc3C2=O)c1)C1CC1 [Example 248, Cyclopropanecarboxylic acid [5-(6-chloro-1-oxo-3,4-dihydro-1H-isoquinolin-2-yl)-pyridin-3-yl]-amide]
774 nM |  | CN(C)C(=O)COc1cncc(N2CCc3cc(Cl)ccc3C2=O)c1 [Example 256, 2-[5-(6-Chloro-1-oxo-3,4-dihydro-1H-isoquinolin-2-yl)-pyridin-3-yloxy]-N,N-dimethyl-acetamide]
1800 nM |  | CN1CCN(Cc2ccncc2N2CCc3cc(Cl)ccc3C2=O)CC1 [Example 280, 6-Chloro-2-[4-(4-methyl-piperazin-1-ylmethyl)-pyridin-3-yl]-3,4-dihydro-2H-isoquinolin-1-one]
893 nM |  | CCOc1ccc2c(n1)C(C)(C)N(c1cncc(CNc3cc[nH]n3)c1)C2=O [Example 385, 2-Ethoxy-7,7-dimethyl-6-{5-[(1H-pyrazol-3-ylamino)-methyl]-pyridin-3-yl}-6,7-dihydro-pyrrolo[3,4-b]pyridin-5-one]

Source: patent publication US9133158B2, “Bicyclic dihydroisoquinoline-1-one derivatives” (Hoffmann-La Roche Inc., priority 2011, dated 2015)
